Measurements published in patent publication US8242275B2, “Bicyclic pyrazole compounds as antibacterial agents” (Janssen Pharmaceutica NV, priority 2005, dated 2012).
≈ marks a conversion by molar mass, not a printed value. Where two headings read alike, the source gives them in different places.

What was measured:
[1] = tested on: E. coli KL-16 (GSC strain 4245); experiment: In vitro antibacterial activity (MIC assay), broth microdilution; format: cell-based; details: Escherichia coli
Procedure, shortened: (§1)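 Bacteria at roughly 5×10^5 CFU/mL final were grown 16–24 h at 35° C in wells holding 2-fold serial dilutions (11 points) of compound prepared in 100% DMSO, following NCCLS M7-A5. MIC, in μg/mL, is the concentration that stops visible growth relative to untreated wells.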

S. aureus ATCC13709 = experiment: as above; format: cell-based; details: Staphylococcus aureus, ATCC13709; read-out: S. aureus ATCC13709 MIC
Procedure, shortened: as §1

S. pneumoniae ATCC49619 = experiment: as above; format: cell-based; details: Streptococcus pneumoniae, ATCC49619; read-out: S. pneumoniae ATCC49619 MIC
Procedure, shortened: as §1

E. coli topoisomerase IV = target: T1, E. coli topoisomerase IV (Escherichia coli, UniProt P0AFI2+P20083); experiment: Topoisomerase IV inhibition assay (relaxation); format: biochemical; details: E. coli topoisomerase IV relaxation, visual inspection of gels; read-out: Topoisomerase IV IC50 (converted)
T1 construct: purchased John Innes Enterprises Ltd. (John Innes Centre, UK)
T1 sequence (P0AFI2 whole entry): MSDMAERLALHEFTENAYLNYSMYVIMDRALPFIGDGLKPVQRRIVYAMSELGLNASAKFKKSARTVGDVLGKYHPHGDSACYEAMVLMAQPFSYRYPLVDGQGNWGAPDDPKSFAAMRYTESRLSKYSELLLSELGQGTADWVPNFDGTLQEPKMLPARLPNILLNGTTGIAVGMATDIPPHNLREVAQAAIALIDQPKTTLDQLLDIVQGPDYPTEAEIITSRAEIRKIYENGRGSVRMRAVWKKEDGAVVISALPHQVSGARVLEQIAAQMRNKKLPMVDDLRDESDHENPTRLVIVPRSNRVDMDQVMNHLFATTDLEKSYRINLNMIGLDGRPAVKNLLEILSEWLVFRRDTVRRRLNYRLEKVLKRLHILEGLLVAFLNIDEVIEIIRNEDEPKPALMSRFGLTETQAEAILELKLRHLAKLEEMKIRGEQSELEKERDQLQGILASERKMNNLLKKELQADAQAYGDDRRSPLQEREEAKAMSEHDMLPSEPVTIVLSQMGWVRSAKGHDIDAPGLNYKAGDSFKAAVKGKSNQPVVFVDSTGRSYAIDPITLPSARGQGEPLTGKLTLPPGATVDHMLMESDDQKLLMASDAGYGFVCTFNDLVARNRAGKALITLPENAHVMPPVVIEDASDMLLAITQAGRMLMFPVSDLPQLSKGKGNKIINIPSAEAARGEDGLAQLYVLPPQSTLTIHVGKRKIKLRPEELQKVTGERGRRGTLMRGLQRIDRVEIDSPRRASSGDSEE
T1 sequence (P20083 whole entry): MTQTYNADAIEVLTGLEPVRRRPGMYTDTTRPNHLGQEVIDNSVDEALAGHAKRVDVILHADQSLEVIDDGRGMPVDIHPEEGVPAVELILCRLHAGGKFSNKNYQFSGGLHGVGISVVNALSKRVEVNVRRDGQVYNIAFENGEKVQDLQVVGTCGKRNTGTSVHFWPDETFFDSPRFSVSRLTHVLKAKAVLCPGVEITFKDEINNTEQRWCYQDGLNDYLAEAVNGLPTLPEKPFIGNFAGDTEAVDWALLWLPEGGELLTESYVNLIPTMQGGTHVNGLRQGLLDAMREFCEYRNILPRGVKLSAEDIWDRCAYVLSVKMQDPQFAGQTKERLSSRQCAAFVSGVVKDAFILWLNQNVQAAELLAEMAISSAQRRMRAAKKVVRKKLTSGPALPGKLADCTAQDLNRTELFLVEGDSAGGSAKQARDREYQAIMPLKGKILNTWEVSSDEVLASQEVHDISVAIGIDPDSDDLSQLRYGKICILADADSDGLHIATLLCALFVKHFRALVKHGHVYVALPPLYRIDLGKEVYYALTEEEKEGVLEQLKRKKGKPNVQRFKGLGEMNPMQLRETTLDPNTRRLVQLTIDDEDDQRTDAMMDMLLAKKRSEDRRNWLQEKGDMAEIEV
Experimental: Inhibition of the relaxation activity of E. coli topoisomerase IV was determined using enzyme, buffers and substrates received from John Innes Enterprises Ltd. (John Innes Centre, UK). The reactions were performed according to the manufacturer's directions, with the following modifications.
DNA relaxation reactions were carried out in a total reaction volume of 20 μL, containing 300 ng of supercoiled pBR322, 40 mM HEPES-KOH (pH 7.6), 100 mM potassium glutamate, 10 mM Mg(OAc)2, 10 mM DTT, 4 μg/mL tRNA, 2 mM ATP, and 50 μg/mL BSA. Compounds, diluted in 10% DMSO, were added to the reaction mixture to reach a final concentration of 0.5% DMSO. Enzyme was diluted to 0.45 unit/μL in a solution of 40 mM HEPES-KOH (pH 7.6), 150 mM potassium glutamate, 1 mM DTT, 1 mM EDTA, and 40% glycerol. Diluted enzyme (0.9 unit) was added to each reaction.
The reactions were incubated at 37° C. for 45 min. The reactions were then cooled to 0° C. followed by addition of 3 μL of 40% glycerol, 100 mM Tris-HCl (pH 7.5), 50 mM EDTA, 0.5% SDS and 0.1% bromophenol blue. Samples were separated on 1.0% agarose gels. Gels were stained with Ethidium bromide and photographed with a Stratagene Eagle Eye II.

MSSA ATCC 29213 = experiment: Resistant strains assay (broth microdilution MIC); format: cell-based; details: Staphylococcus aureus, read-out: MIC, Column B
Experimental: (§2) Compounds of the present invention were tested for activity against susceptible and resistant bacterial strains in vitro, and activity was compared to known anti-bacterial agents. Testing protocols followed NCCLS methodology for broth microdilution assays. MIC values in μg/mL are presented in Table 3 for the following strains: Column A: MSSA ATCC13709 (Smith); Column B: MSSA ATCC 29213; Column C: MRSA OC3726 (COL); Column D: MRSA OC2878.

MSSA ATCC13709 (Smith) = experiment: Resistant strains assay (broth microdilution MIC); format: cell-based; details: Staphylococcus aureus
Experimental: as §2

CipR MRSA OC4159 = experiment: Resistant strains assay (broth microdilution MIC); format: cell-based; details: Staphylococcus aureus, read-out: MIC, Column F
From the text: (§3) Testing protocols followed NCCLS methodology for broth microdilution assays.

CipR MRSA OC4222 = experiment: Resistant strains assay (broth microdilution MIC); format: cell-based; details: Staphylococcus aureus, read-out: MIC, Column G
From the text: as §3

CipR MRSA OC5273 = experiment: Resistant strains assay (broth microdilution MIC); format: cell-based; details: Staphylococcus aureus, read-out: MIC, Column H
From the text: as §3

MRSA OC2878 = experiment: Resistant strains assay (broth microdilution MIC); format: cell-based; details: Staphylococcus aureus, read-out: MIC, Column D
From the text: as §3

MRSA OC3726 (COL) = experiment: Resistant strains assay (broth microdilution MIC); format: cell-based; details: Staphylococcus aureus, read-out: MIC, Column C
From the text: as §3

CipR MRSA OC3946 = experiment: Resistant strains assay (broth microdilution MIC); format: cell-based; details: Staphylococcus aureus, read-out: MIC, Column E
Experimental: as §2
MIC values in μg/mL are presented in Table 4 for the following strains: Column E: CipR MRSA OC3946; Column F: CipR MRSA OC4159; Column G: CipR MRSA OC4222; Column H: CipR MRSA OC5273.

E. coli DNA gyrase = target: T2, E. coli DNA gyrase (Escherichia coli, UniProt P0AES4+P0AES6); experiment: DNA gyrase inhibition assay (supercoiling); format: biochemical; details: E. coli DNA gyrase supercoiling, visual inspection of gels; read-out: DNA Gyrase IC50 (converted)
T2 construct: purchased John Innes Enterprises Ltd. (John Innes Centre, UK)
T2 sequence (P0AES4 whole entry, one chain of several): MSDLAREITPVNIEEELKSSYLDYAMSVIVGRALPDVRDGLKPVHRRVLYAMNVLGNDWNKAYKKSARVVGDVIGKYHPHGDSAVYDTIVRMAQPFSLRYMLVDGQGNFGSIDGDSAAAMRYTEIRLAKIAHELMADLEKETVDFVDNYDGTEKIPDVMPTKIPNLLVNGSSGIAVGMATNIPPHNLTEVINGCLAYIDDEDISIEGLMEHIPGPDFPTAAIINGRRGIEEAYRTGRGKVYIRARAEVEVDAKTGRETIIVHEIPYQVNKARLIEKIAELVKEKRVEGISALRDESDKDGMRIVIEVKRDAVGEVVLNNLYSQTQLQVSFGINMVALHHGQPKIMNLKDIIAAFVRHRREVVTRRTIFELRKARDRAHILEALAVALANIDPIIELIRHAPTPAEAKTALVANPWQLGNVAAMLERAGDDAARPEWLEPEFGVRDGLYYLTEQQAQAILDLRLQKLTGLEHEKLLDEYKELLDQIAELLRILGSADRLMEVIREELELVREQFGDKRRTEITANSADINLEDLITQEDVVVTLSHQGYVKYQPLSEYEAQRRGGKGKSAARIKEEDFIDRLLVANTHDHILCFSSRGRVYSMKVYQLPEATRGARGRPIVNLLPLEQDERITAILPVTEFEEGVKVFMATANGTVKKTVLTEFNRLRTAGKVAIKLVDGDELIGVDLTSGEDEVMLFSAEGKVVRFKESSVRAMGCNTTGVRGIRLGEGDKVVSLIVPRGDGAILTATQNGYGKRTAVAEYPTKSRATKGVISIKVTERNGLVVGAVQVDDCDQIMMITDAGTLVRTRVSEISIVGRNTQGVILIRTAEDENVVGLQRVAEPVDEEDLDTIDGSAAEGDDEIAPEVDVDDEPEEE
Procedure, shortened: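 Agarose-gel (1.0%, ethidium-stained) readout of supercoiled versus relaxed pBR322 after 30 min at 37° C. Each reaction held 250 ng DNA, 0.2 unit enzyme, 1 mM ATP, 4 mM MgCl2, 24 mM KCl in 35 mM Tris-HCl pH 7.5, and compound at 0.5% DMSO final.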

Structure (SMILES)	MIC [1] [µg/mL]	MIC (S. aureus ATCC13709) [µg/mL]	MIC (S. pneumoniae ATCC49619) [µg/mL]	IC50 (E. coli topoisomerase IV) [nM]	MIC (MSSA ATCC 29213) [µg/mL]	MIC (MSSA ATCC13709 (Smith)) [µg/mL]	MIC (CipR MRSA OC4159) [µg/mL]	MIC (CipR MRSA OC4222; CipR MRSA OC4222) [µg/mL]	MIC (CipR MRSA OC5273) [µg/mL]	MIC (MRSA OC2878; MRSA OC2878) [µg/mL]	MIC (MRSA OC3726 (COL); MRSA OC3726 (COL)) [µg/mL]	MIC (CipR MRSA OC3946; CipR MRSA OC3946) [µg/mL]	IC50 (E. coli DNA gyrase) [nM]	MIC (CipR MRSA OC4222; MRSA) [µg/mL]	MIC (CipR MRSA OC3946; MRSA) [µg/mL]	MIC (MRSA OC2878; MRSA) [µg/mL]	MIC (MRSA OC3726 (COL); MRSA) [µg/mL]
COc1ccc2nccc(-n3cc4c(n3)CCC(NC(=O)c3cc5c(cc3F)SCC(=O)N5)C4)c2c1 (centres unmarked) [Example 18, 7-Fluoro-3-oxo-3,4-dihydro-2H-benzo[1,4]thiazine-6-carboxylic acid [2-(6-methoxy-quinolin-4-yl)-4,5,6,7-tetrahydro-2H-indazol-5-yl]-amide]	4 (≈ 7.94 µM)	0.03 (≈ 0.0596 µM)	1 (≈ 1.99 µM)	496	0.25 (≈ 0.496 µM)	0.031 (≈ 0.0616 µM)	0.031 (≈ 0.0616 µM)	0.031 (≈ 0.0616 µM)	0.062 (≈ 0.123 µM)	0.062 (≈ 0.123 µM)	0.062 (≈ 0.123 µM)	0.015 (≈ 0.0298 µM)					
COc1ccc2nccc(-n3cc4c(n3)CCC(NC(=O)c3cc5c(cc3F)SCC(=O)N5)C4)c2n1 (centres unmarked) [Example 5, 7-Fluoro-3-oxo-3,4-dihydro-2H-benzo[1,4]thiazine-6-carboxylic acid [2-(6-methoxy-[1,5]naphthyridin-4-yl)-4,5,6,7-tetrahydro-2H-indazol-5-yl]-amide]	128 (≈ 254 µM)	0.25 (≈ 0.495 µM)	2 (≈ 3.96 µM)	248	0.031 (≈ 0.0614 µM)	0.25 (≈ 0.495 µM)	0.007 (≈ 0.0139 µM)	0.015 (≈ 0.0297 µM)	0.031 (≈ 0.0614 µM)	0.031 (≈ 0.0614 µM)	0.062 (≈ 0.123 µM)	0.007 (≈ 0.0139 µM)	238				
COc1ccc2nccc(-n3cc4c(n3)CCC(NCc3ccc5c(c3)OCCO5)C4)c2c1 (centres unmarked) [Example 50, (2,3-Dihydro-benzo[1,4]dioxin-6-ylmethyl)-[2-(6-methoxy-quinolin-4-yl)-4,5,6,7-tetrahydro-2H-indazol-5-yl]-amine]	128 (≈ 289 µM)	0.5 (≈ 1.13 µM)	1 (≈ 2.26 µM)	136	16 (≈ 36.2 µM)	0.5 (≈ 1.13 µM)	16 (≈ 36.2 µM)	16 (≈ 36.2 µM)	1 (≈ 2.26 µM)	0.5 (≈ 1.13 µM)	1 (≈ 2.26 µM)	0.5 (≈ 1.13 µM)	4520				
COc1ccc2nccc(-n3cc4c(n3)CCC(NCc3ccc5c(c3)NC(=O)CS5)C4)c2c1 (centres unmarked) [Example 52, 6-{[2-(6-Methoxy-quinolin-4-yl)-4,5,6,7-tetrahydro-2H-indazol-5-ylamino]-methyl}-4H-benzo[1,4]thiazin-3-one]	2 (≈ 4.24 µM)	0.25 (≈ 0.53 µM)	1 (≈ 2.12 µM)	63.6	1 (≈ 2.12 µM)	0.25 (≈ 0.53 µM)	0.25 (≈ 0.53 µM)		0.5 (≈ 1.06 µM)	0.5 (≈ 1.06 µM)	0.5 (≈ 1.06 µM)		265	0.125 (≈ 0.265 µM)	0.125 (≈ 0.265 µM)		
COc1ccc2nccc(-n3cc4c(n3)CCC(NCc3ccc5c(c3)NC(=O)CS5)C4)c2n1 (centres unmarked) [Example 41, 6-{[2-(6-Methoxy-[1,5]naphthyridin-4-yl)-4,5,6,7-tetrahydro-2H-indazol-5-ylamino]-methyl}-4H-benzo[1,4]thiazin-3-one]	2 (≈ 4.23 µM)	0.25 (≈ 0.529 µM)	2 (≈ 4.23 µM)	33.9	0.25 (≈ 0.529 µM)	0.25 (≈ 0.529 µM)	0.25 (≈ 0.529 µM)	0.25 (≈ 0.529 µM)	0.5 (≈ 1.06 µM)	0.5 (≈ 1.06 µM)	1 (≈ 2.12 µM)	0.25 (≈ 0.529 µM)	127				
COc1ccc2nccc(-n3cc4c(n3)CCC(NC(=O)c3ccc5c(c3)NC(=O)CS5)C4)c2c1 (centres unmarked) [Example 17, 3-Oxo-3,4-dihydro-2H-benzo[1,4]thiazine-6-carboxylic acid [2-(6-methoxy-quinolin-4-yl)-4,5,6,7-tetrahydro-2H-indazol-5-yl]-amide]	4 (≈ 8.24 µM)	0.25 (≈ 0.515 µM)	2 (≈ 4.12 µM)	257	0.062 (≈ 0.128 µM)	0.25 (≈ 0.515 µM)	0.031 (≈ 0.0638 µM)	0.062 (≈ 0.128 µM)	0.25 (≈ 0.515 µM)			0.015 (≈ 0.0309 µM)	247			0.125 (≈ 0.257 µM)	0.125 (≈ 0.257 µM)
